Results as given in paper PMC8268581, “Identification of 3,4-Dihydro-2H,6H-pyrimido[1,2-c][1,3]benzothiazin-6-imine Derivatives as Novel Selective Inhibitors of Plasmodium falciparum Dihydroorotate Dehydrogenase” (International Journal of Molecular Sciences, 2021).

What was measured:
[1] = target: mammalian mitochondrial complexes II–III (Bos taurus, UniProt P00157+P35720+Q3T189+Q95123); assay: succinate-cytochrome c reductase (complexes II–III) activity assay; type: biochemical; details: bovine heart mitochondria, range tested 0.0007 to 22.7 µM; read-out: IC50 Mammalian Mitochondrial CII–III
Protocol: (§1) Bovine heart mitochondria were prepared as previously described. The NADH-cytochrome c reductase (complexes I–III) and succinate-cytochrome c reductase (complexes II–III) activities were assayed in 384-well plates following an established protocol with small modifications. Complex I–III activity was assayed in a reaction mix containing 50 mM phosphate buffer pH 7.4, 2 mM KCN, 200 µM cytochrome c (cytochrome c from horse heart, Nacalai tesque), and 15 µg/mL mitochondria. Plates containing 1 µL serial dilutions of PfDHODH inhibitors were prepared and mixed with 38 µL of the reaction mix, as described above. The reaction was started by the addition of 5 µL of 2.6 mM NADH, and the assay was performed as described for PfDHODH, but at 550 nm and with 15 min of incubation. Complex II–III activity was assayed similarly to complex I–III activity but with 100 µM cytochrome c and 25 µg/mL mitochondria, and the reaction was started by 10 mM succinate. For both assays, DMSO and 5 µM ascochlorin were used as negative and positive controls, respectively. Assays were performed in triplicate.

P. falciparum 3D7 = assay: In vitro antimalarial assay (PfLDH/diaphorase); type: cell-based; details: Plasmodium falciparum, growth inhibition, 72 h, 0.0003 to 10 µM, read-out: EC50 Pf3D7
Protocol: This assay was conducted using human red blood cells (RBC) following the guidelines of the ethics committee of Nagasaki University (permission no. 19). Human RBC was obtained from the Japanese Red Cross Society. The P. falciparum 3D7 strain was cultured in 2% hematocrit type O human RBC in RPMI-1640 medium (Gibco) supplemented with 23.8 mM sodium bicarbonate (Wako), 50 mg/L hypoxanthine (Wako), 25 mg/L gentamycin (Sigma), and 0.5% (w/v) AlbuMAX®® II (Gibco) under a 5% O2, 5% CO2, and 90% N2 atmosphere at 37 °C. Parasites were synchronized with 5% (w/v) D-sorbitol (Wako).
Synchronized ring-stage parasites at 0.3% parasitemia and 2% hematocrit were cultured in a 384-well plate at 25 µL with test compounds at a final concentration in the range of 0.0003 to 10 µM with a fixed DMSO concentration of 0.4% (v/v). Parasite growth was monitored by the diaphorase-coupled P. falciparum lactate dehydrogenase (PfLDH) assay, as previously described. After 72 h, 70 µL of the assay solution (150 mM lithium L-lactate (Wako), 0.05 mg/mL 3-acetylpyridine adenine dinucleotide (Oriental Yeast Co., Ltd., Tokyo, Japan), 0.2 mg/mL nitro blue tetrazolium (Wako), 1 unit/mL diaphorase, and 100 mM Tris-HCl pH 8.0) were mixed with the parasite culture and incubated at room temperature for 40 min, and the generated nitro blue formazan was measured at 650 nm using a SpectraMax®® Paradigm®® Multi-Mode Microplate Reader. […] The EC50 was calculated using GraphPad Prism 8.0 software from the mean of quadruplets values.

[2] = Cytotoxicity assay, HDF (Cell Counting Kit-8); type: cell-based; details: human dermal fibroblast (HDF) cells, normal human dermal fibroblasts
Protocol: (§2) Human dermal fibroblast cells (HDF, Zenbio, Inc., Durham, NC, USA) were cultured in Dulbecco’s Modified Eagle Medium/Nutrient Mixture F-12 medium (DMEM/F12, Gibco), human pancreatic carcinoma cells (PANC-1, DS Pharma Biomedical, Co., Ltd.) were cultured in DMEM (Gibco), and human colorectal adenocarcinoma cells (DLD-1, Taiho Pharmaceutical Company) were cultured in RPMI-1640 medium (FUJIFILM Wako Pure Chemicals). The culture mediums were supplemented with 10% (v/v) heat-inactivated fetal bovine serum (Gibco) and the cells were maintained at 37 °C under 5% CO2.
(§3) HDF, PANC-1, and DLD-1 were seeded at 2.5 × 10^4 cells/well on a 96-well plate and incubated at 37 °C under 5% CO2 overnight. The cells were then washed with PBS and the medium was replaced with 99 µL of fresh media. Then, 1 µL of the compounds or DMSO was added to the respective wells. As controls, wells containing 1% (v/v) DMSO in column 1 and wells containing only the culture medium in column 12 were used as the negative and positive controls, respectively. After 48 h of incubation, the cells were washed with PBS, and 99 µL of fresh media was replaced, followed by the addition of 10 µL of Cell Counting Kit-8 (Dojindo) to each well. After 3 h of incubation, the absorbance was measured at 450 nm using a SpectraMax®® Paradigm®® Multi-Mode microplate Reader. The calculation of cell viability in the test well was based on the absorbance of control wells according to the manufacturer’s protocol. The mean of quadruplet values was used to calculate the CC50 using GraphPad Prism 8.0 software.

PfDHODH = target: T1, PfDHODH (Plasmodium falciparum, UniProt Q08210); assay: PfDHODH inhibition assay (DCIP end-point, 384-well); type: biochemical; details: recombinant tag-free PfDHODH, 20 min, serial dilutions 0.0007-22.7 µM; read-out: IC50 DHODH Pf
T1 construct: encoding amino acid residues 158 to 569 fused to a His6-SUMO tag in its N-terminus; His6-SUMO (N, cleaved yes); made in house; host or cells: E. coli BL21 Star (DE3), pETSUMO/PfDHODH
T1 sequence (Q08210 158-569): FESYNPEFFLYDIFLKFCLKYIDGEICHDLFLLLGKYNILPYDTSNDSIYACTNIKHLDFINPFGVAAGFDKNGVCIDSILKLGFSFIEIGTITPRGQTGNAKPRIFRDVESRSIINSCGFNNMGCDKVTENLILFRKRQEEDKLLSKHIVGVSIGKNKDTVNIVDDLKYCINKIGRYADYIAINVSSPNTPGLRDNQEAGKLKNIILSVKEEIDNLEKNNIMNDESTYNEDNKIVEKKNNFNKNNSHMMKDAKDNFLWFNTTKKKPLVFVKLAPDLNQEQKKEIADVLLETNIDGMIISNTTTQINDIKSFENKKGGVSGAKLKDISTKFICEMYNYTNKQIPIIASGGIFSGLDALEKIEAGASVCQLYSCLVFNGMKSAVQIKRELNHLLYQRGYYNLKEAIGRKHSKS
Protocol: The screening of 40,400 compounds was conducted in 384-well plates by adapting the end-point assay reported before. First, 1 µL of 200 µM compound was transferred into 384-well plates using a Benchtop Multi-Pipetter EDR-384SR (Biotech Co., Ltd., Tokyo, Japan). […] Next, 38 µL of assay mix (100 mM HEPES-NaOH pH 7.5, 5% (v/v) glycerol, 150 mM NaCl, 0.05% (v/v) Triton X-100, 15 µM decylubiquinone (dUQ, Sigma), 120 µM 2,6-dichlorophenolindophenol (DCIP, Sigma), and 20 nM PfDHODH) were dispensed into all wells and mixed at 600 rpm for 1 min by a MixMate®® (Eppendorf). The reaction was started by the addition of 5 µL of 1.8 mM L-DHO (Sigma) as the substrate and mixed as described above for 20 s. The absorbance at 600 nm was recorded using a SpectraMax®® Paradigm®® Multi-Mode Microplate Reader (Molecular Devices) before (t0) and after 20 min (t20) incubation at room temperature. The readings at t0 were subtracted from t20, and PfDHODH inhibition was calculated as the inhibition relative to the negative and positive controls in a single-point assay. Hits were defined as compounds inhibiting more than 50% of PfDHODH activity at 4.5 µM. The quality of the screening system was evaluated by calculating statistical parameters: Z′-factor, S/N, S/B, SW, and CV, as previously reported. The IC50 values of the hit compounds were determined using the same assay system containing serial dilutions of each compound in triplicates (22.7, 6.8, 2.27, 0.68, 0.227, 0.068, 0.023, 0.007, 0.002, 0.0007 µM) using GraphPad Prism 8.0 software (GraphPad Software Inc., San Diego, CA, USA).

[3] = Cytotoxicity assay, PANC-1 (Cell Counting Kit-8); type: cell-based; details: PANC-1 human pancreatic carcinoma cells
Protocol: as §2, §3

HsDHODH = target: T2, HsDHODH (Homo sapiens, UniProt Q02127); assay: HsDHODH counter-assay; type: biochemical; details: purified recombinant HsDHODH, tested at 4.5 µM; read-out: IC50 DHODH Hs
T2 construct: made in house
T2 sequence (Q02127 whole entry): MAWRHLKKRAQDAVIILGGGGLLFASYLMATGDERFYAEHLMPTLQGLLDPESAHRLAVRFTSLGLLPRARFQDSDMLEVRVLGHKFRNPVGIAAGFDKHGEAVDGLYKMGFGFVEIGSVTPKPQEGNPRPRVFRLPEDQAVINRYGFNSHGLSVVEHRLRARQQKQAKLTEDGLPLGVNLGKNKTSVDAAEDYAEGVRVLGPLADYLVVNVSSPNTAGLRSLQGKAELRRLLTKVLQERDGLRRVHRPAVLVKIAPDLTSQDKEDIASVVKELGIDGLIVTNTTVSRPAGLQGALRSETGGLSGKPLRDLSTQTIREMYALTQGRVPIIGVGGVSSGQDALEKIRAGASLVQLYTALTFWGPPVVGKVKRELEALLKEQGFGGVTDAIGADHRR
Protocol: Selected hit compounds from PfDHODH screening were tested for potential inhibition against HsDHODH at 4.5 µM. The HsDHODH used in this study was purified as previously reported. The HsDHODH assay was performed similarly to that for PfDHODH, but in an assay mix consisting of 50 mM Tris-HCl pH 8.0, 0.1% (v/v) Triton X-100, 2 mM potassium cyanide (KCN, Wako), 60 µM dUQ, and 120 µM DCIP, with the reaction started by the addition of 200 µM L-DHO (final concentration) in triplicate. For this assay, DMSO was used as a negative control and 10 µM of lapachol was used as a positive control (100% inhibition). The relative inhibition was calculated as described above.

[4] = Cytotoxicity assay, DLD-1 (Cell Counting Kit-8); type: cell-based; details: DLD-1 human colorectal adenocarcinoma cells
Protocol: as §2, §3

[5] = target: mammalian mitochondrial complexes I–III (Bos taurus, UniProt P00157+P03887+P17694+P42026); assay: NADH-cytochrome c reductase (complexes I–III) activity assay; type: biochemical; details: bovine heart mitochondria, range tested 0.0007 to 22.7 µM; read-out: IC50 Mammalian Mitochondrial CI–III
Protocol: as §1

N=C1Sc2cc3ccccc3cc2C2=NCCCN12 [Compound 11, 2,3,4,6-tetrahydro-7-thia-1,5-diazatetraphen-6-imine]
IC50 [1]: > 22.7 µM | EC50 (P. falciparum 3D7): > 10 µM | EC50 at 48 h [2]: > 10 µM | IC50 (PfDHODH): 6.42 ± 0.09 µM | EC50 at 48 h [3]: > 10 µM | IC50 (HsDHODH): > 4.5 µM | EC50 at 48 h [4]: > 10 µM | IC50 [5]: > 22.7 µM

N=C1Sc2cc(-c3ccc(C(N)=O)cc3)ccc2C2=NCCCN12 [Compound 16]
IC50 [1]: > 22.7 µM | EC50 (P. falciparum 3D7): > 10 µM | EC50 at 48 h [2]: > 10 µM | IC50 (PfDHODH): 1.82 ± 0.08 µM | EC50 at 48 h [3]: > 10 µM | IC50 (HsDHODH): > 4.5 µM | EC50 at 48 h [4]: > 10 µM | IC50 [5]: > 22.7 µM

N=C1Sc2cc(-c3cccc4ccccc34)ccc2C2=NCCCN12 [Compound 2]
IC50 [1]: > 22.7 µM | EC50 (P. falciparum 3D7): > 10 µM | EC50 at 48 h [2]: > 10 µM | IC50 (PfDHODH): 0.85 ± 0.05 µM | EC50 at 48 h [3]: > 10 µM | IC50 (HsDHODH): > 4.5 µM | EC50 at 48 h [4]: > 10 µM | IC50 [5]: 13.9 ± 2.14 µM

CC(=O)NCCCCCOc1cccc(-c2ccc3c(c2)SC(=N)N2CCCN=C32)c1 [Compound 26]
IC50 [1]: > 22.7 µM | EC50 (P. falciparum 3D7): > 10 µM | EC50 at 48 h [2]: > 10 µM | IC50 (PfDHODH): 3.49 ± 0.21 µM | EC50 at 48 h [3]: > 10 µM | IC50 (HsDHODH): > 4.5 µM | EC50 at 48 h [4]: > 10 µM | IC50 [5]: > 22.7 µM

CC(=O)Nc1cccc(-c2ccc3c(c2)SC(=N)N2CCCN=C32)c1 [Compound 23]
IC50 [1]: > 22.7 µM | EC50 (P. falciparum 3D7): > 10 µM | EC50 at 48 h [2]: > 10 µM | IC50 (PfDHODH): 1.85 ± 0.19 µM | EC50 at 48 h [3]: > 10 µM | IC50 (HsDHODH): > 4.5 µM | EC50 at 48 h [4]: > 10 µM | IC50 [5]: > 22.7 µM

CC(=O)Nc1ccc2c(c1)SN1CCCN=C21 [Compound 28]
IC50 [1]: > 22.7 µM | EC50 (P. falciparum 3D7): > 10 µM | EC50 at 48 h [2]: > 10 µM | IC50 (PfDHODH): 18.5 ± 0.4 µM | EC50 at 48 h [3]: > 10 µM | IC50 (HsDHODH): > 4.5 µM | EC50 at 48 h [4]: > 10 µM | IC50 [5]: > 22.7 µM

CS(=O)(=O)Nc1cccc(-c2ccc3c(c2)SC(=N)N2CCCN=C32)c1 [Compound 24]
IC50 [1]: > 22.7 µM | EC50 (P. falciparum 3D7): > 10 µM | EC50 at 48 h [2]: > 10 µM | IC50 (PfDHODH): 1.94 ± 0.07 µM | EC50 at 48 h [3]: > 10 µM | IC50 (HsDHODH): > 4.5 µM | EC50 at 48 h [4]: > 10 µM | IC50 [5]: > 22.7 µM

N=C1Sc2ccc(-c3ccccc3)cc2C2=NCCCN12 [Compound 9]
IC50 [1]: > 22.7 µM | EC50 (P. falciparum 3D7): > 10 µM | EC50 at 48 h [2]: > 10 µM | IC50 (PfDHODH): 0.76 ± 0.08 µM | EC50 at 48 h [3]: > 10 µM | IC50 (HsDHODH): > 4.5 µM | EC50 at 48 h [4]: > 10 µM | IC50 [5]: > 22.7 µM

c1cncc(-c2ccc3c(c2)SN2CCCN=C32)c1 [Compound 35]
IC50 [1]: > 22.7 µM | EC50 (P. falciparum 3D7): > 10 µM | EC50 at 48 h [2]: > 10 µM | IC50 (PfDHODH): 1.48 ± 0.07 µM | EC50 at 48 h [3]: > 10 µM | IC50 (HsDHODH): > 4.5 µM | EC50 at 48 h [4]: > 10 µM | IC50 [5]: > 22.7 µM

FC(F)(F)c1ccc2c(c1)SN1CCCN=C21 [Compound 29]
IC50 [1]: > 22.7 µM | EC50 (P. falciparum 3D7): > 10 µM | EC50 at 48 h [2]: > 10 µM | IC50 (PfDHODH): 9.71 ± 0.29 µM | EC50 at 48 h [3]: > 10 µM | IC50 (HsDHODH): > 4.5 µM | EC50 at 48 h [4]: > 10 µM | IC50 [5]: > 22.7 µM

Oc1ccc(-c2ccc3c(c2)SN2CCCN=C32)cc1 [Compound 38]
IC50 [1]: > 22.7 µM | EC50 (P. falciparum 3D7): > 10 µM | EC50 at 48 h [2]: > 10 µM | IC50 (PfDHODH): 1.81 ± 0.01 µM | EC50 at 48 h [3]: > 10 µM | IC50 (HsDHODH): > 4.5 µM | EC50 at 48 h [4]: > 10 µM | IC50 [5]: > 22.7 µM

Oc1cccc(-c2ccc3c(c2)SN2CCCN=C32)c1 [Compound 41]
IC50 [1]: > 22.7 µM | EC50 (P. falciparum 3D7): > 10 µM | EC50 at 48 h [2]: > 10 µM | IC50 (PfDHODH): 1.44 ± 0.05 µM | EC50 at 48 h [3]: > 10 µM | IC50 (HsDHODH): > 4.5 µM | EC50 at 48 h [4]: > 10 µM | IC50 [5]: > 22.7 µM
